Measured values as given in patent publication US7410975B2, “Small molecule toll-like receptor (TLR) antagonists” (Coley Pharmaceutical Group, Inc., priority 2003, dated 2008).
Where a name gives a salt, the structure may show the parent alone.

Target: T1, human TLR3 (hTLR3) (Homo sapiens, UniProt O15455)
T1 construct: expressed in transfected cells
T1 sequence (O15455 24-904): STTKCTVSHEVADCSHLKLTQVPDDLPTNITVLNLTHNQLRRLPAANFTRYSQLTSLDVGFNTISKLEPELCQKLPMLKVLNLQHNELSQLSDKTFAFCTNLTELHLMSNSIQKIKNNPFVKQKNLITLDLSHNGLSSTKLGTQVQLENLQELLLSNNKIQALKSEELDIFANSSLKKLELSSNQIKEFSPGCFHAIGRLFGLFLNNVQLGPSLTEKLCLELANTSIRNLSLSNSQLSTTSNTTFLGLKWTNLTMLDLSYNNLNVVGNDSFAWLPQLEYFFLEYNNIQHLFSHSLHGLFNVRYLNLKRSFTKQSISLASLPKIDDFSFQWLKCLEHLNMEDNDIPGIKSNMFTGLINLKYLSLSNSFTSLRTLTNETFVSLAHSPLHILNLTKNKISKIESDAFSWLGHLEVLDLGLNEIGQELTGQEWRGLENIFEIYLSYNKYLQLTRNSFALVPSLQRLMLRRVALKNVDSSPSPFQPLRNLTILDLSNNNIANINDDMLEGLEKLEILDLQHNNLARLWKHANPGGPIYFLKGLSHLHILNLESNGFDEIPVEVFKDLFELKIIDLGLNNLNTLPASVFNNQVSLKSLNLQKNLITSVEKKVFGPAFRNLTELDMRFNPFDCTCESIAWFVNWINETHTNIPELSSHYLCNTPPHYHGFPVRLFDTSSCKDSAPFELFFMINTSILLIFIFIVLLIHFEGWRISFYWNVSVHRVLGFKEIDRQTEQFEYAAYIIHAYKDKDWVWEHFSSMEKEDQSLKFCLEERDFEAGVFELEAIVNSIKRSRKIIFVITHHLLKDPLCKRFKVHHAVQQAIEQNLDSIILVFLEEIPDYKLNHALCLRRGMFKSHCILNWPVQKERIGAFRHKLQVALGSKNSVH
Experiment: Antagonist screen, hTLR3-NFκB-293 cells, NF-κB-luciferase reporter, with EC50 of poly(I:C)
Format: cell-based
Settings: compound at 0.5, 5, 50 μg/ml; EC50 concentration of poly(I:C); 16 h; NF-κB-luciferase
Summary of the method: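 Scores reflect clear reduction of NF-κB-luciferase signal versus baseline fold induction from EC50 poly(I:C) alone. Compounds tested in duplicate at three final concentrations (0.5, 5, 50 μg/ml) with ligand for 16 h stimulation of hTLR3-NFκB-293 cells plated overnight at 1.5×10^4 per well.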

Compound	hTLR3 (inhibitory effect, antagonist score)
CN1CCc2cccc3c2[C@H]1Cc1ccc(O)c(O)c1-3.Cl [compound 101, Apomorphinehydrochloride (R, —)]	— (compounds for which there was no clear down regulation even at 50 μg/ml)
CC(C)(C)c1ccc(C(O)CCCN2CCC(C(O)(c3ccccc3)c3ccccc3)CC2)cc1 (stereo not shown) [compound 138, Terfenadine]	11 (compounds for which there was clear down regulation only at 50 μg/ml)
CN(C)C(=O)C(CCN1CCC(O)(c2ccc(Cl)cc2)CC1)(c1ccccc1)c1ccccc1 [compound 144, Loperamidehydrochloride]	11 (compounds for which there was clear down regulation only at 50 μg/ml)
COc1cc2c(cc1O)C[C@H]1c3c(cc(O)c(OC)c3-2)CCN1C [compound 600, Boldine]	— (compounds for which there was no clear down regulation even at 50 μg/ml)
CN1CCc2cc3c(c4c2C1Cc1ccccc1-4)OCO3.Cl (stereo not shown) [compound 669, Remerine hydrochloride]	— (compounds for which there was no clear down regulation even at 50 μg/ml)
COc1cc2nc(N3CCN(C(=O)C4CCCO4)CC3)nc(N)c2cc1OC.Cl (stereo not shown) [compound 751, Terazosin hydrochloride]	— (compounds for which there was no clear down regulation even at 50 μg/ml)
COc1cc2nc(N3CCN(C(=O)C4COc5ccccc5O4)CC3)nc(N)c2cc1OC.CS(=O)(=O)O (stereo not shown) [compound 858, Doxazosin mesylate]	— (compounds for which there was no clear down regulation even at 50 μg/ml)
CCN(CC)CCCC(C)Nc1nc(/C=C/c2ccc(Cl)cc2)nc2cc3ccccc3cc12 (stereo not shown) [compound 2000]	12 (compounds for which there was clear down regulation at 5 μg/ml and 50 μg/ml)
CCN(CC)CCCNc1nc(-c2ccccc2)nc2ccccc12 [compound 2001]	11 (compounds for which there was clear down regulation only at 50 μg/ml)

Same assay, conditions: hTLR3-NFκB-293 cells, with EC50 of poly(I:C); compound at 0.5, 5 and 50 μg/ml

Compound	hTLR3 (inhibitory effect)
COc1cc2cc3c4cc(OC)c(OC)cc4cc[n+]3c(C)c2cc1OC [compound 431, Coralyne chloridehydrate]	— (compounds for which there was no clear down regulation even at 50 μg/ml)
COc1ccc(Cc2nccc3cc(OC)c(OC)cc23)cc1OC.Cl [compound 583, Papaverinehydrochloride]	— (compounds for which there was no clear down regulation even at 50 μg/ml)
COc1ccc2cc3[n+](cc2c1OC)CCc1cc2c(cc1-3)OCO2.[Cl-] [compound 586, Berberine chloride]	11 (compounds for which there was clear down regulation only at 50 μg/ml)
CC[N+](C)(CC)CCC[n+]1c(-c2ccccc2)c2cc(N)ccc2c2ccc(N)cc21.[I-].[I-] [compound 792, Propidium iodide]	12 (compounds for which there was clear down regulation at 5 μg/ml and 50 μg/ml)
CN(C)CCN(Cc1ccc(Cl)cc1)c1ccccn1.Cl [compound 807, Chloro-pyraminehydrochloride]	— (compounds for which there was no clear down regulation even at 50 μg/ml)
CCOc1ccc(Cc2nccc3cc(OCC)c(OCC)cc23)cc1OCC.Cl [compound 830, Ethaverinehydrochloride]	— (compounds for which there was no clear down regulation even at 50 μg/ml)
O=c1c2c(nc(NCCO)n1-c1ccccc1)-c1ccccc1CC21CCCC1 [compound 891]	11 (compounds for which there was clear down regulation only at 50 μg/ml)
O=c1c2c(nc(NCCO)n1Cc1ccccc1)-c1ccccc1CC21CCCC1 [compound 926]	12 (compounds for which there was clear down regulation at 5 μg/ml and 50 μg/ml)
CN1CCc2c1nc1ccccc1c2N [compound 990, 1-Methyl-2,3-dihydro-1H-pyrrolo[2,3-b]quinolin-4-ylamine]	— (compounds for which there was no clear down regulation even at 50 μg/ml)
CN1CCc2c1nc1ccccc1c2NC(=O)CN1CCCCCC1 [compound 1003]	11 (compounds for which there was clear down regulation only at 50 μg/ml)
Cc1ccc2nc3c(c(N)c2c1)CCN3C [compound 1091, 1,6-Dimethyl-2,3-dihydro-1H-pyrrolo[2,3-b]quinolin-4-ylamine]	11 (compounds for which there was clear down regulation only at 50 μg/ml)
Cc1ccc(-n2c(NCCO)nc3c(c2=O)C2(CCCCC2)Cc2ccccc2-3)cc1 [compound 1137]	13 (compounds for which there was clear down regulation at 0.5 μg/ml, 5 μg/ml, and 50 μg/ml)
CN1CCc2c1nc1ccc(Br)cc1c2N [compound 1142, 6-Bromo-1-methyl-2,3-dihydro-1H-pyrrolo[2,3-b]quinolin-4-ylamine]	11 (compounds for which there was clear down regulation only at 50 μg/ml)
O=C1c2ccc(S(=O)(=O)c3ccc4c(c3)C(=O)N(c3ccccn3)C4=O)cc2C(=O)N1c1ccccn1 [compound 1163]	11 (compounds for which there was clear down regulation only at 50 μg/ml)
CN1CCCCc2c1nc1ccccc1c2N [compound 1185, 1-Methyl-2,3,4,5-tetrahydro-1H-azepino[2,3-b]quinolin-6-ylamine]	— (compounds for which there was no clear down regulation even at 50 μg/ml)
CN1CCc2c1nc1ccccc1c2NC(=O)CN1CCN(c2ccccc2)CC1 [compound 1212]	— (compounds for which there was no clear down regulation even at 50 μg/ml)
Cn1c(NN)nc2c(c1=O)C1(CCCC1)Cc1ccccc1-2 [compound 1213]	— (compounds for which there was no clear down regulation even at 50 μg/ml)
Nc1c2c(nc3ccccc13)N(Cc1ccccc1)CC2 [compound 1217, 1-Benzyl-2,3-dihydro-1H-pyrrolo[2,3-b]quinolin-4-ylamine]	12 (compounds for which there was clear down regulation at 5 μg/ml and 50 μg/ml)
CCCCCCN(CCCCCC)CC(=O)Nc1c2c(nc3ccccc13)N(C)CC2 [compound 1224]	12 (compounds for which there was clear down regulation at 5 μg/ml and 50 μg/ml)
O=C(CN1CCCC1)Nc1c2c(nc3ccccc13)N(c1ccccc1)CC2 [compound 1244]	11 (compounds for which there was clear down regulation only at 50 μg/ml)
NNc1nc2c(c(=O)n1C1CCCC1)C1(CCCC1)Cc1ccccc1-2 [compound 1248]	— (compounds for which there was no clear down regulation even at 50 μg/ml)
NNc1nc2c(c(=O)n1-c1ccccc1)C1(CCCC1)Cc1ccccc1-2 [compound 1320]	— (compounds for which there was no clear down regulation even at 50 μg/ml)
O=c1[nH]c(NCCO)nc2c1C1(CCCC1)Cc1ccccc1-2 [compound 1322]	11 (compounds for which there was clear down regulation only at 50 μg/ml)
CCCCCCCCCCCC(=O)Nc1c2c(nc3ccccc13)N(C)CC2 [compound 1334]	— (compounds for which there was no clear down regulation even at 50 μg/ml)
O=C1c2ccc(Oc3ccc(S(=O)(=O)c4ccc(Oc5ccc6c(c5)C(=O)N(c5ccccn5)C6=O)cc4)cc3)cc2C(=O)N1c1ccccn1 [compound 1367]	12 (compounds for which there was clear down regulation at 5 μg/ml and 50 μg/ml)
